Measured values: patent US20260132132A1, “3A,4,5,6-TETRAHYDRO-1 H-PYRAZOLO[3,4-C]PYRIDIN-7(7AH)-ONE DERIVATIVES AS FACTOR XIIA INHIBITORS” (KALVISTA PHARMACEUTICALS LIMITED, priority 2022, published 2026)

How the values were obtained:
[1] = target: T1, Human Factor XIIa (hFXIIa) (Homo sapiens, UniProt P00748); experiment: Determination of Human Factor XIIa (hFXIIa) inhibition, fluorogenic substrate IC50 assay; format: biochemical; conditions: fluorogenic substrate H-DPro-Phe-Arg-AFC at Km, 25° C., read-out: Human FXIIa IC50
T1 construct: purchased Enzyme Research Laboratories
T1 sequence (P00748 373-615 limits assumed): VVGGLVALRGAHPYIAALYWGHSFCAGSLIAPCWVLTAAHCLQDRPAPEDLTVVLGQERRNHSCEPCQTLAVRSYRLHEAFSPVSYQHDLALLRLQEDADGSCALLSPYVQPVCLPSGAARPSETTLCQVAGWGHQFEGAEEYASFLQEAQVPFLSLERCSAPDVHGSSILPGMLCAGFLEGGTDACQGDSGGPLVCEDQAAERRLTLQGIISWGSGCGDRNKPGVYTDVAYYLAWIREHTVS
T1 sequence (P00748 20-372 partner limits assumed): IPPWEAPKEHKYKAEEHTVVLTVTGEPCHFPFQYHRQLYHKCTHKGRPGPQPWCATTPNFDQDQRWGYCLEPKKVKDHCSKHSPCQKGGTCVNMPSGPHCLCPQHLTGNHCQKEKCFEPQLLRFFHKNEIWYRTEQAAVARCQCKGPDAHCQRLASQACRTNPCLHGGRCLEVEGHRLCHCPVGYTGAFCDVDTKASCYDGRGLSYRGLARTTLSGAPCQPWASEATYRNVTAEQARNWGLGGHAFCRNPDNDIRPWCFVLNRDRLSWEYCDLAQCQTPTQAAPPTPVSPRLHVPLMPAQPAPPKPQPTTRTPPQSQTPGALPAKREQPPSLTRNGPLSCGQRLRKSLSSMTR
Procedure: Determination of Human Factor XIIa (hFXIIa) inhibition
The Km for the cleavage of the substrate by hFXIIa was determined by standard transformation of the Michaelis-Menten equation, with subsequent inhibition assays performed at substrate Km concentration.

[2] = target: FXa (Homo sapiens, UniProt P00742); experiment: Related protease inhibition: FXa, fluorogenic substrate; format: biochemical; conditions: fluorogenic substrate at Km, 25° C.; H1-H3 = % activity at 40 μM
Chain of FXa (P00742 235-488 limits assumed): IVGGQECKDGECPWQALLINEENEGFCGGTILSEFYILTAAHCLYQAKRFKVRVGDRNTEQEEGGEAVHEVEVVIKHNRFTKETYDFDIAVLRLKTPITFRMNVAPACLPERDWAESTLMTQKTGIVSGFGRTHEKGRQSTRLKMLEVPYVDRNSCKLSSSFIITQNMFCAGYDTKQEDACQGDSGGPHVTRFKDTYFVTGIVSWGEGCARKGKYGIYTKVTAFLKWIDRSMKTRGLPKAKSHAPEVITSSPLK
Chain of FXa (P00742 41-179 partner limits assumed): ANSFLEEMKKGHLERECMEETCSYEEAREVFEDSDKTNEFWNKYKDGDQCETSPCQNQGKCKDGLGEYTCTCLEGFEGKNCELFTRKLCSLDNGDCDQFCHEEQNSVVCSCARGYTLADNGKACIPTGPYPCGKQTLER
Procedure: Human serine protease enzyme Plasma Kallikrein, KLK1, FXa, Plasmin, Thrombin and Trypsin were assayed for enzymatic activity using an appropriate fluorogenic substrate at Km concentration, FXIa at fixed substrate concentration of 100 μM and various concentrations of the test compound.

IC50 [1] [nM] | IC50 [2] [µM] | Structure (SMILES)
10 to 100 | 3 to 10 | Cc1cc(CNC(=O)c2nn(-c3cccc(Cl)c3)c3c2CCN(c2ccc4c(c2)C(=O)N(CCO)CCC4)C3=O)nn1C [Example 1305, 1-(3-chlorophenyl)-N-((1,5-dimethyl-1H-pyrazol-3-yl)methyl)-6-(2-(2-hydroxyethyl)-1-oxo-2,3,4,5-tetrahydro-1H-benzo[c]azepin-8-yl)-7-oxo-4,5,6,7-tetrahydro-1H-pyrazolo[3,4-c]pyridine-3-carboxamide]
3000 to 10000 | > 100 | CCNC(=O)c1nn(-c2cccc(Cl)c2)c2c1CCN(c1cccc(CN3CCCCC3)c1)C2=O [Example 1011, 1-(3-chlorophenyl)-N-ethyl-7-oxo-6-(3-(piperidin-1-ylmethyl)phenyl)-4,5,6,7-tetrahydro-1H-pyrazolo[3,4-c]pyridine-3-carboxamide]
1000 to 3000 | 10 to 40 | O=C(NCC1CC1)c1nn(-c2cccc(Cl)c2)c2c1CCN(c1ccc3c(c1)CNCC3)C2=O [Example 1074, 1-(3-chlorophenyl)-N-(cyclopropylmethyl)-7-oxo-6-(1,2,3,4-tetrahydroisoquinolin-7-yl)-4,5,6,7-tetrahydro-1H-pyrazolo[3,4-c]pyridine-3-carboxamide]
300 to 1000 | 10 to 40 | CN1CCc2ccc(N3CCc4c(C(=O)NCC5CC5)nn(-c5cccc(Cl)c5)c4C3=O)cc2C1 [Example 1012, 1-(3-chlorophenyl)-N-(cyclopropylmethyl)-6-(2-methyl-1,2,3,4-tetrahydroisoquinolin-7-yl)-7-oxo-4,5,6,7-tetrahydro-1H-pyrazolo[3,4-c]pyridine-3-carboxamide]
3000 to 10000 | > 40 | CCNC(=O)c1nn(-c2cccc(Cl)c2)c2c1CCN(c1cccc(N3CC4(CC4)N(C)C3=O)c1)C2=O [Example 1369, 1-(3-chlorophenyl)-N-ethyl-6-(3-(4-methyl-5-oxo-4,6-diazaspiro[2.4]heptan-6-yl)phenyl)-7-oxo-4,5,6,7-tetrahydro-1H-pyrazolo[3,4-c]pyridine-3-carboxamide]
1000 to 3000 | > 40 | CCNC(=O)c1nn(-c2cccc(Cl)c2)c2c1CCN(c1ccc3c(c1)C(=O)N(CCO)[C@@H](C)CO3)C2=O [Example 1381, (S)-1-(3-chlorophenyl)-N-ethyl-6-(4-(2-hydroxyethyl)-3-methyl-5-oxo-2,3,4,5-tetrahydrobenzo[f][1,4]oxazepin-7-yl)-7-oxo-4,5,6,7-tetrahydro-1H-pyrazolo[3,4-c]pyridine-3-carboxamide]
10 to 100 | 10 to 40 | Cc1ccc(CNC(=O)c2nn(-c3cccc(Cl)c3)c3c2CCN(c2ccc4c(c2)CN(CCO)CC4)C3=O)cn1 [Example 1147, 1-(3-chlorophenyl)-6-(2-(2-hydroxyethyl)-1,2,3,4-tetrahydroisoquinolin-7-yl)-N-((6-methylpyridin-3-yl)methyl)-7-oxo-4,5,6,7-tetrahydro-1H-pyrazolo[3,4-c]pyridine-3-carboxamide]
300 to 1000 | 10 to 40 | CCNC(=O)c1nn(-c2cccc(Cl)c2)c2c1CCN(c1cccc(N3C(=O)CC4CC43)c1)C2=O (centres unmarked) [Example 1367, 1-(3-Chlorophenyl)-N-ethyl-7-oxo-6-(3-(3-oxo-2-azabicyclo[3.1.0]hexan-2-yl)phenyl)-4,5,6,7-tetrahydro-1H-pyrazolo[3,4-c]pyridine-3-carboxamide]
300 to 1000 | > 40 | Cc1ccncc1CNC(=O)c1nn(-c2cccc(Cl)c2)c2c1CCN(c1ccc3c(c1)C(=O)N(C)[C@@H](CO)CO3)C2=O [Example 1396, (S)-1-(3-chlorophenyl)-6-(3-(hydroxymethyl)-4-methyl-5-oxo-2,3,4,5-tetrahydrobenzo[f][1,4]oxazepin-7-yl)-N-((4-methylpyridin-3-yl)methyl)-7-oxo-4,5,6,7-tetrahydro-1H-pyrazolo[3,4-c]pyridine-3-carboxamide]
100 to 300 | > 40 | CN1CCc2ccc(N3CCc4c(C(=O)NCC5CC5)nn(-c5cccc(Cl)c5F)c4C3=O)cc2C1=O [Example 2004, 1-(3-chloro-2-fluorophenyl)-N-(cyclopropylmethyl)-6-(2-methyl-1-oxo-1,2,3,4-tetrahydroisoquinolin-7-yl)-7-oxo-4,5,6,7-tetrahydro-1H-pyrazolo[3,4-c]pyridine-3-carboxamide]
300 to 1000 | > 40 | CO[C@H]1CCOC[C@H]1NC(=O)c1nn(-c2cccc(Cl)c2)c2c1CCN(c1ccc3c(c1)C(=O)N(C)CC3)C2=O [Example 1265, 1-(3-chlorophenyl)-N-((3R,4S)-4-methoxytetrahydro-2H-pyran-3-yl)-6-(2-methyl-1-oxo-1,2,3,4-tetrahydroisoquinolin-7-yl)-7-oxo-4,5,6,7-tetrahydro-1H-pyrazolo[3,4-c]pyridine-3-carboxamide]
10 to 100 | 10 to 40 | Cc1cc(CNC(=O)c2nn(-c3cccc(Cl)c3)c3c2CCN(c2ccc4c(c2)C(=O)N(CCCO)CC4)C3=O)nn1C [Example 1275, 1-(3-chlorophenyl)-N-((1,5-dimethyl-1H-pyrazol-3-yl)methyl)-6-(2-(3-hydroxypropyl)-1-oxo-1,2,3,4-tetrahydroisoquinolin-7-yl)-7-oxo-4,5,6,7-tetrahydro-1H-pyrazolo[3,4-c]pyridine-3-carboxamide]
300 to 1000 | > 40 | CCNC(=O)c1nn(-c2cc(Cl)cc(CO)c2)c2c1CCN(c1ccc3c(c1)C(=O)N(C)CC3)C2=O [Example 2033, 1-(3-chloro-5-(hydroxymethyl)phenyl)-N-ethyl-6-(2-methyl-1-oxo-1,2,3,4-tetrahydroisoquinolin-7-yl)-7-oxo-4,5,6,7-tetrahydro-1H-pyrazolo[3,4-c]pyridine-3-carboxamide]
100 to 300 | 1 to 3 | COC(=O)C(NC(=O)c1nn(-c2cccc(Cl)c2)c2c1CCN(c1ccc3c(c1)C(=O)N(C)CC3)C2=O)c1cccnc1 (centres unmarked) [Example 1325, methyl 2-(1-(3-chlorophenyl)-6-(2-methyl-1-oxo-1,2,3,4-tetrahydroisoquinolin-7-yl)-7-oxo-4,5,6,7-tetrahydro-1H-pyrazolo[3,4-c]pyridine-3-carboxamido)-2-(pyridin-3-yl)acetate]
10 to 100 | 0.3 to 1 | Cc1c(Cl)c(CNC(=O)c2nn(-c3cccc(Cl)c3)c3c2CCN(c2ccc4c(c2)C(=O)N(CC(N)=O)CCO4)C3=O)nn1C [Example 1394, 6-(4-(2-amino-2-oxoethyl)-5-oxo-2,3,4,5-tetrahydrobenzo[f][1,4]oxazepin-7-yl)-N-((4-chloro-1,5-dimethyl-1H-pyrazol-3-yl)methyl)-1-(3-chlorophenyl)-7-oxo-4,5,6,7-tetrahydro-1H-pyrazolo[3,4-c]pyridine-3-carboxamide]
100 to 300 | 3 to 10 | Cc1cc(CNC(=O)c2nn(-c3cccc(Cl)c3)c3c2CCN(c2ccc4c(c2)C(=O)N(C)CCC4)C3=O)nn1C [Example 1238, 1-(3-Chlorophenyl)-N-[(1,5-dimethylpyrazol-3-yl)methyl]-6-(2-methyl-1-oxo-4,5-dihydro-3H-2-benzazepin-8-yl)-7-oxo-4,5-dihydropyrazolo[3,4-c]pyridine-3-carboxamide]
